Test results published in ChEMBL document CHEMBL3507680, “University of Dundee, Gates Library screen for HepG2 cell viability”.

Assay: Human HepG2 cell viability assay in 384 well format
Type: toxicity, cell-based
Design: dose 125 nL, time 70.5 hour; cytotoxicity at 70.5 h: concentration not given beside the values
Conditions: HepG2 cells, read-out: Inhibition

Row | Compound | cytotoxicity at 70.5 h [%]
1 | CN1CCOC(CNCc2cccc(OC(F)(F)F)c2)C1 (stereo unspecified) | -11.5
2 | CC1CN(C)CCN1C(=O)c1cnc2c(cnn2C2CCCC2)c1 (stereo unspecified) | -2.54
3 | Cc1cnn(CC2CCCN2C(=O)c2sccc2-n2cnnn2)c1 (stereo unspecified) | -4.41
4 | O=C(CCc1ccccn1)N1CCCC(n2cncn2)C1 (stereo unspecified) | -13.6
5 | Cc1noc(C)c1C(=O)NCC(c1ccsc1)N(C)C (stereo unspecified) | -8.5
6 | COc1ccc(NC(=O)C2CC(=O)N(C)C2)cn1 (stereo unspecified) | -5.38
7 | Cc1cc(NC(=O)NCC(C(C)C)N2CCOCC2)n(C)n1 (stereo unspecified) | -6.55
8 | Cc1cc(C(=O)NCC(c2ccsc2)N(C)C)no1 (stereo unspecified) | -5.66
9 | CCOc1ccc(C#N)cc1NCC(=O)NC(=O)NC | -3.9
10 | OC(CN1CCC(c2ccn[nH]2)CC1)c1cccc(C(F)(F)F)c1 (stereo unspecified) | -7.35
11 | O=C(c1cnc2c(cnn2C2CCCC2)c1)N1CCCSCC1 | -6.43
12 | O=C(c1ccc(-n2ccnc2)cc1)N1CCCC(n2ccnc2)C1 (stereo unspecified) | -6.23
13 | CCN(CC1CCCO1)C(=O)Nc1cc(C(N)=O)ccc1OC (stereo unspecified) | -5.25
14 | Cc1cnn(CC2CCCN2C(=O)c2ccccc2-n2cnnn2)c1 (stereo unspecified) | -4.97
15 | Cc1cccc(NC2CCN(C(=O)Nc3ccncc3)CC2)n1 | 24.2
16 | Fc1ccc(-c2cnc(CN3CCOC(Cn4cccn4)C3)o2)cc1 (stereo unspecified) | -5.15
17 | N#Cc1cccnc1N1CCCN(C(=O)CCc2nccs2)CC1 | -1.9
18 | Cn1ccc2c(C(=O)N3CCCC3c3noc(C4CC4)n3)cccc21 (stereo unspecified) | -1.84
19 | CCCc1noc2ncc(C(=O)N3CCCC3c3cnn(C)c3)cc12 (stereo unspecified) | -6.19
20 | CCc1nccn1CC1CCCN1S(=O)(=O)Cc1ccccc1 (stereo unspecified) | -10.3
21 | O=C(c1cccc2cn[nH]c12)N1CCCC1c1noc(C2CC2)n1 (stereo unspecified) | -2.84
22 | CC(C)(C)c1cnc(CN2CCCCC2Cn2cccn2)o1 (stereo unspecified) | 18.8
23 | CCc1c(C(=O)NC2CCS(=O)(=O)C2)cnn1-c1ccc(C)cc1 (stereo unspecified) | -6.41
24 | Cc1cc(CN2CCN(C(=O)NCc3cccs3)CC2)no1 | -4.63

Row | Compound | cytotoxicity at 70.5 h [%]
25 | Cc1cccc(-n2ncc(C(=O)NCC3CCS(=O)(=O)C3)c2C)c1 (stereo unspecified) | 0.102
26 | CCCc1noc(CN2CCC(c3ccnn3CCO)CC2)n1 | -0.994
27 | N#Cc1ccccc1N1CCCN(C(=O)CCc2ccsc2)CC1 | 1.39
28 | Cc1cc(CN2CCN(C(=O)NCc3csc(C)n3)CC2)no1 | 17.1
29 | Cc1cnn(C2CCCN(C(=O)Cc3n[nH]c4ccccc34)C2)c1 (stereo unspecified) | 0.337
30 | Cc1nc(C2CCN(C(=O)c3cc(C4CC4)[nH]n3)CC2)no1 | -0.899
31 | Fc1ccc(-c2nc(CN3CCCCC3Cn3cncn3)co2)cc1 (stereo unspecified) | -3.61
32 | O=c1[nH]c(CCN2CCCC2Cn2cncn2)nc2ccccc12 (stereo unspecified) | -9.5
33 | Cn1cc(C2CCCN2CCc2nc3ccccc3c(=O)[nH]2)cn1 (stereo unspecified) | -2.12
34 | Cc1nn(C)c(C)c1C1CCCN1C(=O)c1cnc2onc(C)c2c1 (stereo unspecified) | -7.3
35 | Cc1cnn(CC2CCCCN2C(=O)c2n[nH]c3ccccc23)c1 (stereo unspecified) | 16
36 | O=C(CCCc1nnc(-c2ccccc2)o1)N1CCC1 | -14.2
37 | Cc1nc(C2CCCN(C(=O)c3cc(C(C)(C)C)on3)C2)no1 (stereo unspecified) | -1.93
38 | Cc1cc(CN2CCN(C(=O)NCc3ccoc3)CC2)no1 | -1.05
39 | Cc1nc(C)n(CC2CCCN(CC(=O)NC3CCOCC3)C2)n1 (stereo unspecified) | 3.14
40 | CCN1CCC(NC(=O)CN2CCCC2Cn2nc(C)nc2C)CC1 (stereo unspecified) | 3.87
41 | CN(Cc1nc(-c2ccoc2)no1)C1CCCN(c2cccnn2)C1 (stereo unspecified) | 1.16
42 | CCn1cnnc1CNC(=O)N(C)C(C)c1cccs1 (stereo unspecified) | -0.961
43 | CN(CC(=O)NCc1cccnc1N1CCCCC1)C(=O)c1cccs1 | 0.0514
44 | Cn1cnnc1C1CCN(C(=O)CCCOc2ccccc2)CC1 | -0.661
45 | Cc1ccccc1OCCC(=O)N1CCC(c2nncn2C)CC1 | -0.859
46 | COc1cccc(S(=O)(=O)CCN2CCn3c(C)nnc3C2)c1 | 1.41
47 | Cc1ncc2c(n1)CN(CCCOc1ccc(C#N)cc1)CC2 | 3.97
48 | OC(CN1CCN(Cc2nc(C3CC3)no2)CC1)c1ccccc1 (stereo unspecified) | 2

Row | Compound | cytotoxicity at 70.5 h [%]
49 | N#Cc1ccc(OCC(O)CN2CCc3cncnc3C2)cc1 (stereo unspecified) | 2.9
50 | Cc1nnc(CN2CCN(CC(O)c3ccccc3)CC2)o1 (stereo unspecified) | -1.4
51 | N#CCc1cccc(C(=O)N2CCN(CC(O)c3ccccc3)CC2)c1 (stereo unspecified) | 2.39
52 | COc1ccc2cc(C(=O)N3CCCC3Cn3cc(C)cn3)[nH]c2c1 (stereo unspecified) | 2.37
53 | COc1ccc(OC)c(C(=O)N2CCCCC2Cn2cccn2)c1 (stereo unspecified) | -0.39
54 | CC(=O)Nc1nc(C(=O)N2CCCC2c2noc(C(C)C)n2)cs1 (stereo unspecified) | 1.7
55 | Cc1noc(C)c1CN1CCOC(CNc2cccnn2)C1 (stereo unspecified) | 23.1
56 | CCc1nc(CN2CCCN(C(=O)C(CC)OC)CC2)cs1 (stereo unspecified) | 6.03
57 | Cn1c(C2CC2)nc2c1CCN(CCOc1cccc(F)c1)C2 | 5.07
58 | Cc1cc(CN(C)C(=O)NC2CCN(Cc3ccccn3)CC2)no1 | 1.36
59 | CCc1nc(CN2CCCN(C(=O)CCCOC)CC2)cs1 | 2.4
60 | CN(Cc1cnn(C)c1)C(=O)C1CCCN1Cc1ccccn1 (stereo unspecified) | 26.2
61 | Cc1cc(C)n(CC2CCCN2C(=O)c2cccc3[nH]ncc23)n1 (stereo unspecified) | -8.53
62 | CC1CCCN(Cc2csc(-c3ncccn3)n2)CC1 (stereo unspecified) | 9.27
63 | Nc1nc(CN2CCOC(Cn3cncn3)C2)nc2ccccc12 (stereo unspecified) | -3.11
64 | Cc1nc(C)n(C2CCCN(C(=O)c3ccc4c(c3)COC4)C2)n1 (stereo unspecified) | 0.389
65 | Cc1nc(CN2CCCC(N(C)CCc3ccncc3)C2)no1 (stereo unspecified) | 17.8
66 | CC(C)=CCN(C)C1CCCN(Cc2noc(C)n2)C1 (stereo unspecified) | 21.1
67 | Cc1ccc(-c2cc(CNC(=O)N3CCOC(C)C3)on2)cc1 (stereo unspecified) | -6.72
68 | CC(=O)NC1CCCN(C(=O)Nc2cnc3c(cnn3C(C)C)c2)C1 (stereo unspecified) | -2.01
69 | O=C(NC1CCS(=O)(=O)C1)N1CCN(c2cnccn2)CC1 (stereo unspecified) | -7.1
70 | COc1cc(CNCc2ccc(C(C)O)cc2)cc2c1OCO2 (stereo unspecified) | 44.3
71 | O=C(C1CCS(=O)(=O)C1)N1CCN(c2cnccn2)CC1 (stereo unspecified) | 13
72 | O=C(CCN1C(=O)CCC1=O)Nc1cnn(-c2ccccc2Cl)c1 | 10

Row | Compound | cytotoxicity at 70.5 h [%]
73 | O=C(c1cc2c(s1)CCC2)N1CCCCC1Cn1cccn1 (stereo unspecified) | -3.46
74 | CCc1nc(C2CCCN(C(=O)c3cccc4cn[nH]c34)C2)no1 (stereo unspecified) | 3.52
75 | COc1c(C2CCCN2Cc2cc(C)no2)c(C)nn1C (stereo unspecified) | -9.4
76 | COc1c(C2CCCN2CC(=O)Nc2cc(C)no2)c(C)nn1C (stereo unspecified) | -10.7
77 | Cc1nc(C2CCCN2CC(=O)NCCc2ccsc2)no1 (stereo unspecified) | -2.7
78 | COc1cccc(CCNC(=O)CN2CCCC2c2noc(C)n2)c1 (stereo unspecified) | -6.83
79 | CCS(=O)(=O)c1ccccc1N1CCC(NC(=O)c2ccc[nH]2)CC1 | -1.59
80 | Cc1ccc(C(=O)NS(=O)(=O)c2cc(Cl)ccc2Cl)c(=O)[nH]1 | -1.03
81 | CC(C)c1nc2c(n1C)CCN(Cc1nc(-c3cccs3)no1)C2 | -9.62
82 | Cc1csc(N2CCCN(C(=O)C(C)n3ccnc3)CC2)n1 (stereo unspecified) | -3.25
83 | CCc1ncc(C(=O)N2CCCCC2Cn2cccn2)s1 (stereo unspecified) | -7.11
84 | CCN1CCN(C(=O)C(C)N2CCN(Cc3nccn3C)CC2)CC1 (stereo unspecified) | 0.843
85 | CN1CCN(C(=O)c2ccc(=O)n(C)c2)Cc2ccccc21 | -2.39
86 | CN(Cc1ccncc1)CC(c1cccs1)N1CCOCC1 (stereo unspecified) | 36
87 | CCc1nc(C2CCCN(C(=O)c3cccc4c3ccn4C)C2)no1 (stereo unspecified) | -4.32
88 | CCn1ccnc1CN1CCN(C(C)C(=O)N2CCC(C)CC2)CC1 (stereo unspecified) | 3.72
89 | Cc1ccc(-c2noc(CN3CCOC(Cn4cncn4)C3)n2)cc1 (stereo unspecified) | -7.15
90 | COCCN1CCN(CCCS(=O)(=O)c2ccccc2)CC1C (stereo unspecified) | 0.059
91 | CN(C)C(=O)Cc1nc(CN2CCn3c(nnc3C3CC3)C2)cs1 | -18.5
92 | CC(=O)N(Cc1noc(C2CC2)n1)C1CCN(Cc2nccn2C)C1 (stereo unspecified) | -5.66
93 | c1sc(C2CCCC2)nc1CN1CCn2c(nnc2C2CC2)C1 | 4.56
94 | CC(C)c1ncc2c(n1)CN(Cc1nc(Cc3ccccc3)no1)CC2 | -24.3
95 | CC(C)c1ncncc1C(=O)N1CCCN(Cc2cccs2)CC1 | -18.9
96 | COC(=O)c1cccc(NC(=O)CCn2nc(-c3cccs3)oc2=O)c1 | 0.767

Row | Compound | cytotoxicity at 70.5 h [%]
97 | O=C(NCCNc1ncccn1)C1CCN(c2ncccn2)CC1 | -10.8
98 | CC(NC(=O)CCC(=O)c1cccs1)c1nnc2n1CCCCC2 (stereo unspecified) | -15.6
99 | Cc1ccc(N(C)C2CCN(C(=O)CCc3ccco3)CC2)nn1 | -11.8
100 | O=C1NCCN1C1CCCN(Cc2nnc(-c3ccc(F)cc3)o2)C1 (stereo unspecified) | -21.9
101 | CNC(=O)c1cccc(NC(=O)Cn2nc(-c3cccs3)oc2=O)c1 | 20.9
102 | Cc1ccc(NC2CCN(C(=O)CCNS(C)(=O)=O)CC2)nn1 | -19
103 | NC(=O)COc1cccc(C(=O)N2CCCC(n3ccnc3)C2)c1 (stereo unspecified) | -14.8
104 | CCc1nc(C2CCCN2C(=O)CCc2cccs2)no1 (stereo unspecified) | -5.42
105 | CCOc1cc(C(=O)N2CCCC(n3cncn3)C2)ccc1C (stereo unspecified) | -20.7
106 | CCc1nc(C2CCCN2C(=O)CCc2ccc3c(c2)OCO3)no1 (stereo unspecified) | -24.9
107 | CC1COCCN1Cc1nc(-c2cccc(Br)c2)no1 (stereo unspecified) | 13.8
108 | Cc1ccccc1C1(C(=O)NCCN2CCCC2)CCOCC1 | -13.9
109 | Cc1noc(C(C)N2CCN(CCCN3CCCC3=O)CC2)n1 (stereo unspecified) | -11.4
110 | Cc1ccccc1CNC(=O)CN1CCN(Cc2nccn2C)CC1 | -20.5
111 | Cc1cnn(CC2CCCN2Cc2ncc(-c3ccccc3)o2)c1 (stereo unspecified) | -18.8
112 | Cc1nc(C)n(CC2CCCN(Cc3cccc(C#N)c3)C2)n1 (stereo unspecified) | -15.1
113 | COc1c(CNCc2cccc(Cn3ccnc3)c2)c(C)nn1C | -1.14
114 | Cn1ccc(C(=O)N2CCN(c3ncccn3)CC2)cc1=O | -20.4
115 | Cn1cnc(S(=O)(=O)NCCN2CCCCCC2=O)c1Cl | 14.4
116 | COc1c(CNCc2cccc(CN(C)C)c2)c(C)nn1C | -12.7
